In patent US6881741B2 (ViroChem Pharma Inc., priority 2001, dated 2005):

target: recombinant HCV NS5B (HCV RNA-dependent RNA polymerase) (Hepatitis C virus genotype 1b, UniProt P26663); test: biochemical; details: HCV polymerase activity, list of compounds of Example 27; read-out: IC50 (polymerase activity)
Sequence (P26663 2420-3010 limits assumed): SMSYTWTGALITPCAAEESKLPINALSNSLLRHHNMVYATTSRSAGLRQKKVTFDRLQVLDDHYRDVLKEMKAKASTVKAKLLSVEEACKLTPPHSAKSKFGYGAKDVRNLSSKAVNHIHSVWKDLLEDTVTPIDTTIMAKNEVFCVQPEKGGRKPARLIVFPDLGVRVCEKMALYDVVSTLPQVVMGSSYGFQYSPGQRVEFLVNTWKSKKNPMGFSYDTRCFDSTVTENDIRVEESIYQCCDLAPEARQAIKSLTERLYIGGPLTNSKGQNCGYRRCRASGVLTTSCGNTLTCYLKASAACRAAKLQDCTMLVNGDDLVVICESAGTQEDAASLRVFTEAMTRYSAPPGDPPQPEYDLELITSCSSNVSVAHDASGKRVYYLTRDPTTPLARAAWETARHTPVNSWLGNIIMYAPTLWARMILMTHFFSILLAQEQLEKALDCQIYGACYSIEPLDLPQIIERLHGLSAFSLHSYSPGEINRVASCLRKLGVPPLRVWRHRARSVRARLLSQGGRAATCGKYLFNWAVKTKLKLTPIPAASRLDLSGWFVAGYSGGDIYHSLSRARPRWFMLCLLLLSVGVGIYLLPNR

| SMILES | IC50 |
| --- | --- |
| O=C(O)c1sc(-c2ccccc2)cc1N(C(=O)c1ccc(Cl)cc1Cl)C1CCC(C(=O)O)C1 (stereo not shown) [Compound 548, 3-[(3-CARBOXY-CYCLOPENTYL)-(2,4- DICHLORO-BENZOYL)-AMINO]-5- PHENYL-THIOPHENE-2-CARBOXYLIC ACID] | < 5 µM |
| Cc1ccc(C(=O)N(c2cc(-c3cccc(C(F)(F)F)c3)sc2C(=O)O)C(C)C)c(OCc2ccccc2)c1 [Compound 406, 3-[(2-BENZLOXY-4-METHYL-BENZOYL)- ISOPROPYL-AMINO]-5-(3- TRIFLUOROMETHYL-PHENYL)- THIOPHENE-2-CARBOXYLIC ACID] | < 5 µM |
| Cc1cc(S(=O)(=O)Nc2cc(-c3ccccc3)sc2C(N)=O)c(C)cc1Cl [Compound 580, 3-(4-CHLORO-2,5 DIMETHYL- BENZENESULFONYLAMINO)-5-PHENYL- THIOPHENE-2-CARBOXYLIC ACID AMIDE] | < 5 µM |
| CCN(CC)c1ncc(CN(C(=O)c2ccc(Cl)cc2Cl)c2cc(-c3ccccc3)sc2C(=O)O)s1 [Compound 557, 3-[(2,4-DICHLORO-BENZOYL)-(2- DIETHYLAMINO-THIAZOL-5-YLMETHYL)- AMINO]-5-PHENYL-THIOPHENE-2- CARBOXYLIC ACID] | < 5 µM |
| CC1(C)OCC(N(C(=O)c2ccc(Cl)cc2Cl)c2cc(-c3ccccc3)sc2C(=O)O)CO1 [Compound 535, 3-[(2,4-DICHLORO-BENZOYL)-(2,2- DIMETHYL-[1,3]DIOXAN-5-YL)-AMINO]-5- PHENYL-THIOPHENE-2-CARBOXYLIC ACID] | < 5 µM |
| CCCC(=O)N(Cc1cccc(Cl)c1)c1cc(-c2ccccc2)sc1C(=O)O [Compound 482, 3-[BUTYRYL-(3-CHLORO-BENZYL)- AMINO]-5-PHENYL-THIOPHENE-2- CARBOXYLIC ACID] | < 5 µM |
| CC(COCc1ccccc1)N(C(=O)c1ccc(Cl)cc1Cl)c1cc(-c2ccccc2)sc1C(=O)O (stereo not shown) [Compound 516, 3-[(2-BENZYLOXY-1-METHYL-ETHYL)- (2,4-DICHLORO-BENZOYL)-AMINO]-5- PHENYL-THIOPHENE-2-CARBOXYLIC ACID] | < 5 µM |
| Cc1ccccc1CN(C(=O)C1CCC1)c1cc(-c2ccccc2)sc1C(=O)O [Compound 432, 3-[CYCLOBUTANECARBONYL-(2- METHYL-BENZYL)-AMINO]-5-PHENYL- THIOPHENE-2-CARBOXYLIC ACID] | 5 to 20 µM |
| O=C(O)c1sc(-c2ccccc2)cc1N(Cc1cccc(Cl)c1)C(=O)C1CC1 [Compound 480, 3-[(3-CHLORO-BENZYL)- CYCLOPROPANECARBONYL-AMINO]-5- PHENYL-THIOPHENE-2-CARBOXYLIC ACID] | 5 to 20 µM |
| CCN(C(=O)CCC(C)C)c1cc(-c2ccccc2)sc1C(=O)O [Compound 494, 3-[ETHYL-(4-METHYL-PENTANOYL)- AMINO]-5-PHENYL-THIOPHENE-2- CARBOXYLIC ACID] | < 5 µM |
| C=CCN(C(=O)CCCC)c1cc(-c2ccccc2)sc1C(=O)O [Compound 399, 3-(ALLYL-PENTANOYL-AMINO)-5- PHENYL-THIOPHENE-2-CARBOXYLIC ACID] | 5 to 20 µM |
| O=C(O)c1sc(-c2ccccc2)cc1N(Cc1ccc([N+](=O)[O-])cc1)C(=O)C1CC1 [Compound 420, 3-[CYCLOPROPANECARBONYL-(4- NITRO-BENZYL)-AMINO]-5-PHENYL- THIOPHENE-2-CARBOXYLIC ACID] | 5 to 20 µM |
| CC(C)(C)OC(=O)N1CCCC(N(C(=O)c2ccc(Cl)cc2Cl)c2cc(-c3ccccc3)sc2C(=O)O)C1 (stereo not shown) [Compound 511, 3-[(2-CARBOXY-5-PHENYL-THIOPHEN-3- YL)-(2,4-DICHLORO-BENZOYL)-AMINO]- PIPERIDINE-1-CARBOXYLIC ACID #TERT!-BUTYL ESTER] | < 5 µM |

same assay, conditions: related polymerase activity (Example 27 list); read-out: IC50

| SMILES | IC50 |
| --- | --- |
| CC(C)N(C(=O)c1ccc(Cl)cc1Cl)c1cc(-c2cccc(Cl)c2)sc1C(=O)O [Compound 294, 5-(3-CHLORO-PHENYL)-3-[(2,4-DICHLORO-BENZOYL)-ISOPROPYL-AMINO]-THIOPHENE-2-CARBOXYLIC ACID] | < 5 µM |
| CC(C)N(C(=O)c1ccc(Cl)cc1O)c1cc(-c2ccccc2)sc1C(=O)O [Compound 313, 3-[(4-CHLORO-2-HYDROXY-BENZOYL)- ISOPROPYL-AMINO]-5-PHENYL- THIOPHENE-2-CARBOXYLIC ACID] | < 5 µM |
| C=Cc1ccccc1S(=O)(=O)Nc1cc(-c2ccccc2)sc1C(=O)O [Compound 137, 5-PHENYL-3-(2-VINYL-BENZENESULFONYLAMINO)-THIOPHENE-2-CARBOXYLIC ACID] | 5 to 20 µM |
| Cc1ccccc1S(=O)(=O)Nc1cc(-c2ccc(Cl)cc2Cl)sc1C(=O)O [Compound 58, 5-(2,4-DICHLORO-PHENYL)-3-(TOLUENE-2-SULFONYLAMINO)-THIOPHENE-2-CARBOXYLIC ACID] | 5 to 20 µM |
| O=C(O)c1sc(-c2ccccc2)cc1NS(=O)(=O)c1ccccc1Br [Compound 76, 3-(2-BROMO-BENZENESULFONYLAMINO)-5-PHENYL-THIOPHENE-2-CARBOXYLIC ACID] | < 5 µM |
| Cc1ccccc1S(=O)(=O)Nc1cc(-c2ccoc2)sc1C(=O)O [Compound 126, 5-FURAN-3-YL-3-(TOLUENE-2-SULFONYLAMINO)-THIOPHENE-2-CARBOXYLIC ACID] | < 5 µM |
| O=C(O)c1sc(-c2ccccc2)cc1NS(=O)(=O)c1ccccc1C(F)(F)F [Compound 35, 5-PHENYL-3-(2-TRIFLUOROMETHYL-BENZENESULFONYLAMINO)-THIOPHENE-2-CARBOXYLIC ACID] | > 20 µM |
| CC(=O)c1cccc(-c2cc(N(C)C(=O)c3ccc(C)cc3)c(C(=O)O)s2)c1 [Compound 272, 5-(3-ACETYL-PHENYL)-3-[METHYL-(4-METHYL-BENZOYL)-AMINO]-THIOPHENE-2-CARBOXYLIC ACID] | 5 to 20 µM |
| Cc1ccccc1C(=O)Nc1cc(-c2ccccc2)sc1C(=O)O [Compound 96, 3-(2-METHYL-BENZOYLAMINO)-5-PHENYL-THIOPHENE-2-CARBOXYLIC ACID] | 5 to 20 µM |
| Cc1ccc(C(=O)N(C)c2cc(-c3ccc(OC(F)(F)F)cc3)sc2C(=O)O)cc1 [Compound 216, 3-[METHYL-(4-METHYL-BENZOYL)-AMINO]-5-(4-TRIFLUOROMETHOXY-PHENYL)-THIOPHENE-2-CARBOXYLIC ACID] | 5 to 20 µM |
| CC(=O)c1ccc(-c2cc(NS(=O)(=O)c3ccccc3C)c(C(=O)O)s2)cc1 [Compound 166, 5-(4-ACETYL-PHENYL)-3-(TOLUENE-2-SULFONYLAMINO)-THIOPHENE-2-CARBOXYLIC ACID] | < 5 µM |
| Cc1ccc(C(=O)N(c2cc(-c3ccccc3)sc2C(=O)O)C(C)C)c(O)c1 [Compound 301, 3-[(2-HYDROXY-4-METHYL-BENZOYL)- ISOPROPYL-AMINO]-5-PHENYL- THIOPHENE-2-CARBOXYLIC ACID] | 5 to 20 µM |
| CC(C)N(C(=O)c1ccc(Cl)cc1Cl)c1cc(-c2ccc(S(C)(=O)=O)cc2)sc1C(=O)O [Compound 373, 3-[(2,4-DICHLORO-BENZOYL)- ISOPROPYL-AMINO]-5-(4- METHANESULFONYL-PHENYL)- THIOPHENE-2-CARBOXYLIC ACID] | < 5 µM |
| Cc1ccc(S(=O)(=O)Nc2cc(-c3ccccc3)sc2C(=O)O)c(C)c1 [Compound 136, 3-(2,4-DIMETHYL-BENZENESULFONYLAMINO)-5-PHENYL-THIOPHENE-2-CARBOXYLIC ACID] | < 5 µM |
| CCCCc1ccc(-c2cc(NS(=O)(=O)c3ccccc3C)c(C(=O)O)s2)cc1 [Compound 231, 5-(4-BUTYL-PHENYL)-3-(TOLUENE-2-SULFONYLAMINO)-THIOPHENE-2-CARBOXYLIC ACID] | < 5 µM |
| CC1CCCCC1C(=O)N(c1cc(-c2ccccc2)sc1C(=O)O)C(C)C (stereo not shown) [Compound 379, 3-[ISOPROPYL-(2-METHYL- CYCLOHEXANECARBONYL)-AMINO]-5- PHENYL-THIOPHENE-2-CARBOXYLIC ACID] | 5 to 20 µM |
| CC(=O)c1ccc(-c2cc(N(C(=O)c3ccc(Cl)cc3Cl)C(C)C)c(C(=O)O)s2)cc1 [Compound 355, 5-(4-ACETYL-PHENYL)-3-[)2,4-DICHLORO- BENZOYL)-ISOPROPYL-AMINO]- THIOPHENE-2-CARBOXYLIC ACID] | < 5 µM |
| O=C(O)c1sc(-c2ccccc2)cc1NS(=O)(=O)c1ccccn1 [Compound 47, 5-PHENYL-3-(PYRIDINE-2-SULFONYLAMINO)-THIOPHENE-2-CARBOXYLIC ACID] | > 20 µM |
| Cc1ccccc1S(=O)(=O)Nc1cc(-c2ccccc2C#N)sc1C(=O)O [Compound 102, 5-(2-CYANO-PHENYL)-3-(TOLUENE-2-SULFONYLAMINO)-THIOPHENE-2-CARBOXYLIC ACID] | 5 to 20 µM |
| Cc1ccc(C(=O)N(C)c2cc(-c3ccc(C(F)(F)F)cc3)sc2C(=O)O)cc1 [Compound 275, 3-[METHYL-(4-METHYL-BENZOYL)-AMINO]-5-(4-TRIFLUOROMETHYL-PHENYL)-THIOPHENE-2-CARBOXYLIC ACID] | < 5 µM |
| CC(=O)Nc1nc(C)c(S(=O)(=O)Nc2cc(-c3ccccc3)sc2C(=O)O)s1 [Compound 139, 3-(2-ACETYLAMINO-4-METHYL-THIAZOLE-5-SULFONYLAMINO)-5-PHENYL-THIOPHENE-2-CARBOXYLIC ACID] | 5 to 20 µM |
| Cc1ccc(C(=O)N(CCO)c2cc(-c3ccccc3)sc2C(=O)O)cc1 [Compound 203, 3-[(2-HYDROXY-ETHYL)-(4-METHYL-BENZOYL)-AMINO]-5-PHENYL-THIOPHENE-2-CARBOXYLIC ACID] | < 5 µM |
| O=C(Nc1cc(-c2ccccc2)sc1C(=O)O)c1ccc(F)cc1F [Compound 77, 3-(2,4-DIFLUORO-BENZOYLAMINO)-5-PHENYL-THIOPHENE-2-CARBOXYLIC ACID] | > 20 µM |
| C=CCN(C(=O)c1ccc(C)cc1)c1cc(-c2ccccc2)sc1C(=O)O [Compound 162, 3-[ALLYL-(4-METHYL-BENZOYL)-AMINO]-5-PHENYL-THIOPHENE-2-CARBOXYLIC ACID] | < 5 µM |
| CC(C)(C)N(C(=O)c1ccc(Cl)cc1Cl)c1cc(-c2ccccc2)sc1C(=O)O [Compound 327, 3-[#TERT!-BUTYL-(2,4-DICHLORO- BENZOYL)-AMINO]-5-PHENYL- THIOPHENE-2-CARBOXYLIC ACID] | < 5 µM |
| C=CCN(C(=O)c1ccc(C)cc1)c1cc(-c2cccc(/C=C/C(=O)O)c2)sc1C(=O)O [Compound 323, 3-[ALLYL-(4-METHYL-BENZOYL)-AMINO]- 5-[3-(2-CARBOXY-VINYL)-PHENYL]- THIOPHENE-2-CARBOXYLIC ACID] | 5 to 20 µM |
| Cc1ccccc1S(=O)(=O)Nc1cc(-c2ccccc2O)sc1C(=O)O [Compound 217, 5-(2-HYDROXY-PHENYL)-3-(TOLUENE-2-SULFONYLAMINO)-THIOPHENE-2-CARBOXYLIC ACID] | 5 to 20 µM |
